Test results from patent US20240409585A1, “MACROCYCLIC IMMUNOMODULATORS” (priority 2021, published 2024).
Read-outs that look alike come from different tables or passages of the source. Bridge positions count the residues as written; N and C are the ends. Square brackets hold non-standard residues; d marks the D form. Peptide text beside a SMILES is read from it. * marks the point of attachment. ξ: configuration not given here. Phe(4-COOH) = N[C@@H](Cc1ccc(C(=O)O)cc1)C(=O)O; Bip = N[C@@H](Cc1ccc(-c2ccccc2)cc1)C(=O)O; Morpholine(3S-CO) = O=C(O)[C@@H]1COCCN1; Phe(3-Me) = Cc1cccc(C[C@H](N)C(=O)O)c1; dBta = N[C@H](Cc1csc2ccccc12)C(=O)O; Val(3-OH) = CC(C)(O)[C@H](N)C(=O)O; hPhe = N[C@@H](CCc1ccccc1)C(=O)O; 4Pal = N[C@@H](Cc1ccncc1)C(=O)O; Cha = N[C@@H](CC1CCCCC1)C(=O)O; Cit = NC(=O)NCCC[C@H](N)C(=O)O; Ile(3ξ) = CCC(C)[C@H](N)C(=O)O; Thr(3ξ) = CC(O)[C@H](N)C(=O)O; Dap(Me) = CNC[C@H](N)C(=O)O; Carboxymethyl = O=C(O)C*; NMeA = CN[C@@H](C)C(=O)O; Dab = NCC[C@H](N)C(=O)O; Dap = NC[C@H](N)C(=O)O; Bn = c1ccc(C*)cc1

Target: T1, PE-labeled human PD-L1-Ig binding to Jurkat cell line over-expressing human PD-1 (Jurkat-PD-1) (Homo sapiens, UniProt Q15116)
T1 construct: expressed in transfected cells; host or cells: Jurkat
T1 sequence (Q15116 25-288): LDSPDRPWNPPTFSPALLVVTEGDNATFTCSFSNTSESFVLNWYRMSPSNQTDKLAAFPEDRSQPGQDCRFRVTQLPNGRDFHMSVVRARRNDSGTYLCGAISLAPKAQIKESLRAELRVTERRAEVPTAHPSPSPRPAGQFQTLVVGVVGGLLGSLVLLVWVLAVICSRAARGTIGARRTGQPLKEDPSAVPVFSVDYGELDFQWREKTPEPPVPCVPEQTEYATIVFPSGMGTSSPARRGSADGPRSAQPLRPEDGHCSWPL
Assay: Jurkat-PD-1 Cell Binding High-Content Screening Assay (CBA): Method 1
Settings: Jurkat-hPD-1 cells, PE-labeled PD-L1-Ig 20 nM final

[1] = read-out: Jurkat HPDL1 PD1 IC50 (uM) (Method 1)

| SMILES | IC50 [1] [µM] | IC50 (Jurkat HPDL1 PD1 IC50 (uM) (Method 1)) [µM] |
| --- | --- | --- |
| CCC(C)[C@@H]1NC(=O)[C@H](Cc2ccc(-c3ccccc3)cc2)NC(=O)[C@H](C(C)C)NC(=O)[C@H](Cc2c[nH]c3ccccc23)NC(=O)[C@H](CC(=O)O)NC(=O)[C@H](Cc2ccc(O)cc2)NC(=O)[C@H](CC(N)=O)NC(=O)CSC[C@@H](C(=O)N[C@@H](CC(=O)O)C(=O)N[C@@H](CCN)C(=O)O)NC(=O)[C@H](C(C)O)NC(=O)[C@H](C(C)C)NC(=O)[C@H](CC2CCCCC2)NC(=O)[C@H](CC(N)=O)NC(=O)[C@@H](CC(C)C)NC(=O)[C@H](C)N(C)C1=O (stereo partly drawn) [Compound 2002] ({CH2CO}-NYDWV[Bip][Ile(3ξ)][NMeA][dL]N[Cha]V[Thr(3ξ)]CD[Dab]-OH; thioether N-14) | 0.14 | – |
| CCC(C)[C@@H]1NC(=O)[C@H](Cc2ccc(-c3ccccc3)cc2)NC(=O)[C@H](C(C)C)NC(=O)[C@H](Cc2c[nH]c3ccccc23)NC(=O)[C@H](CC(=O)O)NC(=O)[C@H](Cc2ccc(OCC(=O)O)cc2)NC(=O)[C@H](CNC)NC(=O)CSC[C@@H](C(=O)N[C@@H](CC(N)=O)C(N)=O)NC(=O)[C@H](C(C)O)NC(=O)[C@H](C(C)C)NC(=O)[C@H](CC2CCCCC2)NC(=O)[C@H](CN)NC(=O)[C@@H](CC(C)C)NC(=O)[C@H](C)N(C)C1=O (stereo partly drawn) [Compound 2078] ({CH2CO}-[Dap(Me)]Y(Carboxymethyl)DWV[Bip][Ile(3ξ)][NMeA][dL][Dap][Cha]V[Thr(3ξ)]CN-NH2; thioether N-14) | 0.02 | – |
| CC(C)C[C@@H]1NC(=O)[C@H](CCN)NC(=O)[C@@H](CC(C)C)NC(=O)[C@H](C)N(C)C(=O)[C@H](CCCNC(N)=O)NC(=O)[C@H](Cc2ccc(-c3ccccc3)cc2)NC(=O)[C@H](C(C)C)NC(=O)[C@H](Cc2c[nH]c3ccccc23)NC(=O)[C@H](CC(=O)O)NC(=O)[C@H](Cc2ccc(O)cc2)NC(=O)[C@H](CN)NC(=O)CSC[C@@H](C(=O)N[C@@H](C)C(N)=O)NC(=O)[C@H]([C@@H](C)O)NC(=O)[C@H](C(C)C)NC1=O [Compound 1345] ({CH2CO}-[Dap]YDWV[Bip][Cit][NMeA][dL][Dab]LVTCA-NH2; thioether N-14) | 0.01 | – |
| CCNC(=O)[C@H](CCN)NC(=O)[C@@H]1CSCC(=O)N[C@@H](CCc2ccccc2)C(=O)N[C@@H](Cc2ccc(OCC(=O)O)cc2)C(=O)N[C@@H](CC(=O)O)C(=O)N[C@@H](Cc2cccc(C)c2)C(=O)N[C@@H](Cc2ccc(OCC(=O)O)cc2)C(=O)N[C@@H](Cc2ccc(-c3ccccc3)cc2)C(=O)N[C@@H](Cc2ccc(OCC(=O)O)cc2)C(=O)N(C)[C@@H](C)C(=O)N[C@H](CC(C)C)C(=O)N[C@@H](CCN)C(=O)N[C@@H](CC2CCCCC2)C(=O)N[C@@H](C(C)C)C(=O)N[C@@H]([C@@H](C)O)C(=O)N1 [Compound 1855] ({CH2CO}-[hPhe]Y(Carboxymethyl)D[Phe(3-Me)]Y(Carboxymethyl)[Bip]Y(Carboxymethyl)[NMeA][dL][Dab][Cha]VTC[Dab]-NHEt; thioether N-14) | 0.01 | – |
| CC(C)C[C@@H]1NC(=O)[C@H](CCN)NC(=O)[C@@H](CC(C)C)NC(=O)[C@@H]2COCCN2C(=O)[C@H](C(C)C)NC(=O)[C@H](Cc2ccc(-c3ccccc3)cc2)NC(=O)[C@H](C(C)C)NC(=O)[C@H](Cc2c[nH]c3ccccc23)NC(=O)[C@H](CC(=O)O)NC(=O)[C@H](Cc2ccc(O)cc2)NC(=O)[C@H](CC(N)=O)NC(=O)CSC[C@@H](C(=O)N[C@@H](C)C(N)=O)NC(=O)[C@H]([C@@H](C)O)NC(=O)[C@H](C(C)C)NC1=O [Compound 1367] ({CH2CO}-NYDWV[Bip]V[Morpholine(3S-CO)][dL][Dab]LVTCA-NH2; thioether N-14) | 0.39 | – |
| CC(C)C[C@@H]1NC(=O)[C@H](Cc2c[nH]c3ccccc23)NC(=O)[C@H](CC(=O)O)NC(=O)[C@H](Cc2ccc(OCC(=O)O)cc2)NC(=O)[C@H](Cc2ccccc2)NC(=O)CSC[C@@H](C(=O)N[C@@H](C)C(N)=O)NC(=O)[C@H](CO)NC(=O)[C@H](C(C)C)NC(=O)[C@H](CC(C)C)NC(=O)[C@H](CC(N)=O)NC(=O)[C@@H](CC(C)C)NC(=O)[C@H](C)N(C)C(=O)[C@H](C(C)C)NC(=O)[C@H](Cc2ccc(OCc3ccccc3)cc2)NC1=O [Compound 2028] ({CH2CO}-FY(Carboxymethyl)DWLY(Bn)V[NMeA][dL]NLVSCA-NH2; thioether N-14) | – | 0.48 |
| CC[C@H](C)[C@@H]1NC(=O)[C@H](Cc2ccc(-c3ccccc3)cc2)NC(=O)[C@H](C(C)(C)O)NC(=O)[C@H](Cc2cccc(C)c2)NC(=O)[C@H](CC(=O)O)NC(=O)[C@H](Cc2ccc(O)cc2)NC(=O)[C@H](CC(N)=O)NC(=O)CSC[C@@H](C(=O)N[C@@H](CCN)C(N)=O)NC(=O)[C@H](CCC(=O)O)NC(=O)[C@H](C(C)(C)O)NC(=O)[C@H](CC2CCCCC2)NC(=O)[C@H](CCN)NC(=O)[C@@H](CC(C)C)NC(=O)[C@H](C)N(C)C1=O [Compound 1699] ({CH2CO}-NYD[Phe(3-Me)][Val(3-OH)][Bip]I[NMeA][dL][Dab][Cha][Val(3-OH)]EC[Dab]-NH2; thioether N-14) | 0.04 | – |
| CC(C)C[C@@H]1NC(=O)[C@H](CCCNC(=N)N)NC(=O)[C@@H](Cc2ccccc2)NC(=O)[C@H](C)N(C)C(=O)[C@H](CCCNC(=N)N)NC(=O)[C@H](Cc2ccc(-c3ccccc3)cc2)NC(=O)[C@H](C(C)C)NC(=O)[C@H](Cc2c[nH]c3ccccc23)NC(=O)[C@H](CC(=O)O)NC(=O)[C@H](Cc2ccc(O)cc2)NC(=O)[C@H](CCC(N)=O)NC(=O)CSC[C@@H](C(=O)NCC(N)=O)NC(=O)[C@H](CO)NC(=O)[C@H](C(C)C)NC1=O [Compound 1023] ({CH2CO}-QYDWV[Bip]R[NMeA][dF]RLVSCG-NH2; thioether N-14) | 0.14 | – |
| CC(C)C[C@@H]1NC(=O)[C@H](CCN)NC(=O)[C@@H](CC(C)C)NC(=O)[C@H](C)N(C)C(=O)[C@H](CCCNC(N)=O)NC(=O)[C@H](Cc2ccc(-c3ccccc3)cc2)NC(=O)[C@H](C(C)C)NC(=O)[C@H](Cc2c[nH]c3ccccc23)NC(=O)[C@H](CC(=O)O)NC(=O)[C@H](Cc2ccncc2)NC(=O)[C@H](CN)NC(=O)CSC[C@@H](C(=O)N[C@@H](C)C(N)=O)NC(=O)[C@H]([C@@H](C)O)NC(=O)[C@H](C(C)C)NC1=O [Compound 1545] ({CH2CO}-[Dap][4Pal]DWV[Bip][Cit][NMeA][dL][Dab]LVTCA-NH2; thioether N-14) | 0.04 | – |
| CC(C)C[C@@H]1NC(=O)[C@H](Cc2c[nH]c3ccccc23)NC(=O)[C@H](CC(=O)O)NC(=O)[C@H](Cc2ccncc2)NC(=O)[C@H](CN)NC(=O)CSC[C@@H](C(=O)NCC(N)=O)NC(=O)[C@H](CO)NC(=O)[C@H](C(C)C)NC(=O)[C@H](CC(C)C)NC(=O)[C@H](CC(N)=O)NC(=O)[C@@H](CC(C)C)NC(=O)[C@H](C)N(C)C(=O)[C@H](C(C)C)NC(=O)[C@H](Cc2ccc(-c3ccccc3)cc2)NC1=O [Compound 1549] ({CH2CO}-[Dap][4Pal]DWL[Bip]V[NMeA][dL]NLVSCG-NH2; thioether N-14) | 0.04 | – |
| CC(C)C[C@@H]1NC(=O)[C@H](CCN)NC(=O)[C@@H](CC(C)C)NC(=O)[C@H](C)N(C)C(=O)[C@H](CCCNC(=N)N)NC(=O)[C@H](Cc2ccc(-c3ccccc3)cc2)NC(=O)[C@H](C(C)C)NC(=O)[C@H](Cc2c[nH]c3ccccc23)NC(=O)[C@H](CC(=O)O)NC(=O)[C@H](Cc2ccc(OCC(=O)O)cc2)NC(=O)[C@H](CC(N)=O)NC(=O)CSC[C@@H](C(=O)N[C@@H](C)C(N)=O)NC(=O)[C@H]([C@@H](C)O)NC(=O)[C@H](C(C)C)NC1=O [Compound 1138] ({CH2CO}-NY(Carboxymethyl)DWV[Bip]R[NMeA][dL][Dab]LVTCA-NH2; thioether N-14) | 0.07 | – |
| CC(C)C[C@@H]1NC(=O)[C@H](CCCNC(=N)N)NC(=O)[C@@H](Cc2csc3ccccc23)NC(=O)[C@H](C)N(C)C(=O)[C@H](CCCNC(=N)N)NC(=O)[C@H](Cc2ccc(-c3ccccc3)cc2)NC(=O)[C@H](C(C)C)NC(=O)[C@H](Cc2c[nH]c3ccccc23)NC(=O)[C@H](CC(=O)O)NC(=O)[C@H](Cc2ccc(O)cc2)NC(=O)[C@H](Cc2ccccc2)NC(=O)CSC[C@@H](C(=O)N[C@@H](C)C(N)=O)NC(=O)[C@H]([C@@H](C)O)NC(=O)[C@H](C(C)C)NC1=O [Compound 1180] ({CH2CO}-FYDWV[Bip]R[NMeA][dBta]RLVTCA-NH2; thioether N-14) | 0.51 | – |
| Cc1cccc(C[C@@H]2NC(=O)[C@H](CC(=O)O)NC(=O)[C@H](Cc3ccc(C(=O)O)cc3)NC(=O)[C@H](Cc3ccc(OCC(=O)O)cc3)NC(=O)CSC[C@@H](C(=O)N[C@@H](C)C(N)=O)NC(=O)[C@H]([C@@H](C)O)NC(=O)[C@H](C(C)C)NC(=O)[C@H](CC(C)C)NC(=O)[C@H](CCN)NC(=O)[C@@H](CC(C)C)NC(=O)[C@H](C)N(C)C(=O)[C@H](C(C)C)NC(=O)[C@H](Cc3ccc(-c4ccccc4)cc3)NC(=O)[C@H](C(C)C)NC2=O)c1 [Compound 1571] ({CH2CO}-Y(Carboxymethyl)[Phe(4-COOH)]D[Phe(3-Me)]V[Bip]V[NMeA][dL][Dab]LVTCA-NH2; thioether N-14) | 0.01 | – |
| CCC(C)[C@@H]1NC(=O)[C@H](Cc2ccc(-c3ccccc3)cc2)NC(=O)[C@H](CC(C)C)NC(=O)[C@H](Cc2c[nH]c3ccccc23)NC(=O)[C@H](CC(=O)O)NC(=O)[C@H](Cc2ccc(C(=O)O)cc2)NC(=O)[C@H](Cc2ccc(OCC(=O)O)cc2)NC(=O)CSC[C@@H](C(=O)N[C@@H](CC(N)=O)C(N)=O)NC(=O)[C@H](CO)NC(=O)[C@H](C(C)(C)O)NC(=O)[C@H](CC2CCCCC2)NC(=O)[C@H](CCN)NC(=O)[C@@H](CC(C)C)NC(=O)[C@H](C)N(C)C1=O (stereo partly drawn) [Compound 1916] ({CH2CO}-Y(Carboxymethyl)[Phe(4-COOH)]DWL[Bip][Ile(3ξ)][NMeA][dL][Dab][Cha][Val(3-OH)]SCN-NH2; thioether N-14) | 0.02 | – |
| CCC(C)[C@@H]1NC(=O)[C@H](Cc2ccc(-c3ccccc3)cc2)NC(=O)[C@H](C(C)C)NC(=O)[C@H](Cc2c[nH]c3ccccc23)NC(=O)[C@H](CC(=O)O)NC(=O)[C@H](Cc2ccc(O)cc2)NC(=O)[C@H](CC(N)=O)NC(=O)CSC[C@@H](C(=O)N[C@@H](C)C(N)=O)NC(=O)[C@H](CO)NC(=O)[C@H](C(C)C)NC(=O)[C@H](CC(C)C)NC(=O)[C@H](CCN)NC(=O)[C@@H](CC(C)C)NC(=O)[C@H](C)N(C)C1=O (stereo partly drawn) [Compound 2070] ({CH2CO}-NYDWV[Bip][Ile(3ξ)][NMeA][dL][Dab]LVSCA-NH2; thioether N-14) | 0.05 | – |
